In brackets after ≈: the same amount, converted by molar mass. Like-named read-outs stand apart in the source and are kept apart here.
Legend:
[1] = test system: Black Mexican Sweet Corn cell suspension cultures; experiment: Growth inhibition of maize cell suspension cultures; format: cell-based
Description: Nonregenerable Black Mexican Sweet Corn cell suspension cultures (i.e., cell cultures which lack the ability to regenerate plants) were obtained from Dr. Burle Gengenbach, Department of Agronomy and Plant Genetics, University of Minnesota, St. Paul, Minn. Stock cell cultures were maintained in liquid Murashige and Skoog (MS) medium (Murashige and Skoog, 1962, Physiol. Plant 15: 473) containing 2 mg of 2,4-dichlorophenoxyaceticacid (2,4-D) per liter, and subcultured weekly by diluting to 1/10 the original volume with fresh medium. Cultures were grown in the dark at 26° C. in 500 ml flasks containing 125 ml media.
(§1) Growth inhibition studies were carried out in 125 ml flasks containing 30 ml of test media. 997 was filter sterilized and added to cooling media following autoclaving. Test media were innoculated with cells to give a settled cell volume (15 minutes without centrifugation) of 0.2 ml per 10 ml of suspension. After either six or seven days growth settled cell volumes were again quantitated.
To determine whether the effects of 214 were reversible, Black Mexican Sweet Corn cells growing in liquid suspension culture were exposed to 0.03 mg per liter 214 for various periods of time up to 72 hours. […] The cells were then washed with herbicide-free media and the growth rate evaluated again in the absence of herbicide.

[2] = test system: maize cell suspension cultures; experiment: Reversal of herbicide growth inhibition by leucine, valine and isoleucine; format: cell-based; design: key to Cell suspension culture growth, (+) 997: settled cell volume, ml per 10 ml of suspension
Description: as §1
Cells were tested to determine whether the herbicide induced inhibition of growth was the result of the decreased availability of the three branched chain amino acids. Cells were exposed to toxic levels of 997 (1×10^-6 M) in media either supplemented with 1 mM concentrations of leucine, valine, and isoleucine or with no supplementation. Culture growth rates in the absence of amino acid supplementation and in the presence of 1×10^-6 M 997 were reduced to 16% that of herbicide free cultures.
Experiments were conducted to determine the optimum supplementation levels of each of the three amino acids to obtain maximum herbicide protection and for gaining insight into the site of action of the compound.

[3] = test system: unselected maize callus tissue; experiment: Callus culture growth inhibition, unselected tissue; format: cell-based; settings: for IC50: Zea mays, 336 h
Description: (§2) Therefore the effects of 214 were determined on callus growth. Quantities of tissue averaging 90 mg in size were transferred to nutrient agar maintenance media containing concentrations of 214 ranging from 0.003 to 3 mg per liter. Eight tissue pieces were placed on each plate with three plates per herbicide concentration. After 14 days growth, the tissue was weighed again.

line XA17 tissue = experiment: Callus growth inhibition, resistant line XA17; format: cell-based, maize; settings: Zea mays, 336 h, read-out: level giving a 50% growth inhibition
Description: as §2
Initially, the maximum level of 214 in which line XA17 would grow stably was determined. Stock tissue which had been maintained in the presence of 0.1 mg per liter 214 was transferred to media containing 214 levels ranging up to 30 mg per liter. Tissue was maintained for several subculture intervals and the growth rate evaluated.

[4] = test system: AHAS activity of line XA17 tissue; experiment: AHAS activity assay, line XA17 tissue; format: biochemical, maize; settings: for IC50: AHAS activity of line XA17 tissue, read-out: concentration inhibiting AHAS activity 50%; for change in herbicide sensitivity of AHAS, line XA17 vs control, on a concentration basis: maize
Description: Assays were conducted as a modification of the procedure of Smith et al. (1979, Molec. Gen. Genet. 169: 299-314). Plant cell culture material was ground with sand in a cold mortar and pestle in an equal quantity (w/v) of cell disruption media containing 0.05 M potassium phosphate (pH 7.0), 0.1 mM MgSO4, and 0.5 mM dithiothreitol. The preparation was centrifuged at 11,000×g for 20 minutes and the supernatant assayed for AHAS activity. Assays were conducted in 1 ml volumes containing 0.05 M potassium phosphate (pH 8.0), 40 mM pyruvate, 5 mM MgCl2, 0.1 mM thiamine pyrophosphate, 0.2 ml cell extract, and various concentrations of the herbicide of interest. The reaction mixtures were incubated at 30° C. for 75 minutes and the reaction terminated with the addition of 0.1 ml of 50% (v/v) H2 SO4. Following further incubation at 40° C. for 20 minutes, the acetoin formed from acetolactate by acidification was quantitated using the method of Westerfield (1945, J. Biol. Chem. 161: 495). To 0.2 ml of reaction mixture, 0.8 ml of water, 0.5 ml of 0.5% (w/v) creatine, and 0.5 ml of 5% (w/v) naphthol in 10% (w/v) NaOH was added. After mixing, solutions were incubated at room temperature for one hour. The development of pink color was quantitated by measuring light absorbance at 530 nm.
Assays were conducted to determine if acetohydroxyacid synthase extracted from line XA17 tissue was altered with respect to herbicide sensitivity. Such a change would signify that an alteration of this enzyme conferred the herbicide resistance. Assays were conducted as described supra.

[5] = test system: Callus tissue from line QJ22; experiment: Callus growth inhibition, line QJ22; format: cell-based, maize; settings: line QJ22 vs control tissue; based on herbicide amount giving 50% reduction in growth rate
Description: (§3) Callus tissue from line QJ22 was tested also with the compound 567. The numbers represent the fold increase in herbicide concentration that can be tolerated by each of the cell lines as compared to control tissue. The values were calculated based on the amount of herbicide that gave a 50% reduction in growth rate.

[6] = test system: Callus tissue from line UV18; experiment: Callus growth inhibition, line UV18; format: cell-based, maize; settings: for Callus Growth Fold Increase in Tolerance: line UV18 vs control tissue, based on herbicide amount giving 50% reduction in growth rate
Description: The UV18 cell line was first observed after 25 weeks of selection comprising 9 subculture intervals. The tissue in the selection procedure had been exposed to 0.1 mg per liter 214 for four subculture intervals followed by exposure to 0.3 mg per liter 214 for four subculture intervals. UV18 was identified during the ninth subculture as a rapidly growing sector of tissue with good morphology.
as §3

[7] = read-out: level giving a 50% growth inhibition

CC(C)C1(C)NC(c2nc3ccccc3cc2C(=O)O)=NC1=O (centres unmarked) [compound 214, 2-(5-isopropyl-5-methyl-4-oxo-2-imidazolin-2-yl)3-quinolinecarboxylic acid]
Growth of cells in liquid suspension culture ([1]; 0.03 mg per liter 214, up to 72 hours): completely inhibited
growth rate after washing with herbicide-free media ([1]; after exposure to 0.03 mg per liter 214 up to 72 hours): rapidly return to an uninhibited growth rate
effect of media supplementation with leucine, isoleucine, valine on growth inhibition ([2]; 1 mM each of leucine, isoleucine, and valine, cell suspension cultures): reversed the growth inhibitory effects
Cell death ([3]; 14 day period, 0.003 to 3 mg per liter): not observed to occur
IC50 ([3]; read-out: concentration giving half maximal inhibition of callus growth rate): 0.1 to 0.3 µg/mL (≈ 0.321 to 0.964 µM)
IC50 [3, 7]: 0.1 to 0.3 µg/mL (≈ 0.321 to 0.964 µM)
IC50 (line XA17 tissue): 30 µg/mL (≈ 96.4 µM)
IC50 [4]: 3 to 30 mM
change in herbicide sensitivity of AHAS, line XA17 vs control, on a concentration basis [4]: ≥ 1000 fold
Callus Growth Fold Increase in Tolerance [5]: 5 fold
growth of UV18 tissue in presence of herbicide ([6]; 0.3 mg per liter 214, vs control tissue in the absence of herbicide): grew as rapidly
Callus Growth Fold Increase in Tolerance [6]: 100 fold

CC(C)C1(C)NC(c2ncccc2C(=O)O)=NC1=O (centres unmarked) [compound 997, 2-(5-isopropyl-5-methyl-4-oxo-2-imidazolin-2-yl)nicotinic acid]
herbicide concentration giving 50% growth inhibition ([1]; suspension cultures, concentration in the media, settled cell volume after six or seven days): 1 to 3×10^-8 M
Cell suspension culture growth, (+) 997 ([2]; 0.3 ile): .33
Cell suspension culture growth, (+) 997 ([2]; 0.3 leu): .29
Cell suspension culture growth, (+) 997 ([2]; 0.3 val): .48
Culture growth rate relative to control cultures ([2]; 1×10^-6 M 997, media supplemented with 1 mM leucine, valine, and isoleucine): 91%
effect of media supplementation with leucine, valine, isoleucine on growth inhibition ([2]; 997 ranging in concentration from 1×10^-8 to 1×10^-3 M): could reverse the growth inhibitory effects
Cell suspension culture growth, (+) 997 ([2]; Leucine, Valine, Isoleucine 1,1,1): 1.88
Cell suspension culture growth, (+) 997 ([2]; Leucine, Valine, Isoleucine 1,1,.1): .93
Cell suspension culture growth, (+) 997 ([2]; Leucine, Valine, Isoleucine 1,1,.3): 1.55
Cell suspension culture growth, (+) 997 ([2]; Leucine, Valine, Isoleucine 1,.1,1): 1.28
Cell suspension culture growth, (+) 997 ([2]; Leucine, Valine, Isoleucine 1,.1,.1): 1.03
Cell suspension culture growth, (+) 997 ([2]; Leucine, Valine, Isoleucine 1,.1,.3): 1.38
Cell suspension culture growth, (+) 997 ([2]; Leucine, Valine, Isoleucine 1,.3,1): 1.45
Cell suspension culture growth, (+) 997 ([2]; Leucine, Valine, Isoleucine 1,.3,.1): .98
Cell suspension culture growth, (+) 997 ([2]; Leucine, Valine, Isoleucine 1,.3,.3): 1.40
Cell suspension culture growth, (+) 997 ([2]; Leucine, Valine, Isoleucine .1,1,1): .60
Cell suspension culture growth, (+) 997 ([2]; Leucine, Valine, Isoleucine .1,1,.1): .83
Cell suspension culture growth, (+) 997 ([2]; Leucine, Valine, Isoleucine .1,1,.3): .68
Cell suspension culture growth, (+) 997 ([2]; Leucine, Valine, Isoleucine .1,.1,1): .58
Cell suspension culture growth, (+) 997 ([2]; Leucine, Valine, Isoleucine .1,.1,.1): .70
Cell suspension culture growth, (+) 997 ([2]; Leucine, Valine, Isoleucine .1,.1,.3): .68
Cell suspension culture growth, (+) 997 ([2]; Leucine, Valine, Isoleucine .1,.3,1): .80
Cell suspension culture growth, (+) 997 ([2]; Leucine, Valine, Isoleucine .1,.3,.1): .75
Cell suspension culture growth, (+) 997 ([2]; Leucine, Valine, Isoleucine .1,.3,.3): .90
Cell suspension culture growth, (+) 997 ([2]; Leucine, Valine, Isoleucine .3,1,1): 1.30
Cell suspension culture growth, (+) 997 ([2]; Leucine, Valine, Isoleucine .3,1,.1): 1.08
Cell suspension culture growth, (+) 997 ([2]; Leucine, Valine, Isoleucine .3,1,.3): 1.30
Cell suspension culture growth, (+) 997 ([2]; Leucine, Valine, Isoleucine .3,.1,1): .80
Cell suspension culture growth, (+) 997 ([2]; Leucine, Valine, Isoleucine .3,.1,.1): .70
Cell suspension culture growth, (+) 997 ([2]; Leucine, Valine, Isoleucine .3,.1,.3): .95
Cell suspension culture growth, (+) 997 ([2]; Leucine, Valine, Isoleucine .3,.3,1): 1.08
Cell suspension culture growth, (+) 997 ([2]; Leucine, Valine, Isoleucine .3,.3,.1): .95
Cell suspension culture growth, (+) 997 ([2]; Leucine, Valine, Isoleucine .3,.3,.3): 1.18
Cell suspension culture growth, (+) 997 ([2]; No Supplementation (4 replicates)): 0.30
activity at 1 µM ([2]; Zea mays, 1×10^-6 M 997, absence of amino acid supplementation, read-out: Culture growth rate relative to herbicide free cultures): 16%
IC50 [3, 7]: 0.1 to 0.3 µg/mL (≈ 0.383 to 1.15 µM)
IC50 (line XA17 tissue): > 30 µg/mL
IC50 [4]: 3 to 30 mM
change in herbicide sensitivity of AHAS, line XA17 vs control, on a concentration basis [4]: ≥ 1000 fold
Callus Growth Fold Increase in Tolerance [5]: 30-50 fold
Callus Growth Fold Increase in Tolerance [6]: 100 fold

Source: US6211439A, “Herbicide resistance in plants” (MGI Pharma, Inc, priority 1995, dated 2001)
